Experimental data: patent US20250092395A1, “A GLUN2D INHIBITOR FOR USE IN THE TREATMENT OR RELAPSE PREVENTION OF A DEPRESSIVE EPISODE” (priority 2022, published 2025)
Entries after “also recorded” stand apart in the source; their conditions may differ. Counter-ions that a name gives are not always drawn.

What was measured:
[1] = system: mice subjected to the chronic despair model (CDM); test: Chronic despair model (CDM) swim test, immobility time; assay type: in vivo; details: CDM mice, test day
Procedure: Induction phase: Mice were forced to swim in a glass cylinder (0 26 cm, 60 cm high) filled to 25 cm with 25° C. warm water for 10 min on 5 consecutive days. After the swimming, the animals were kept in their cages for two days before treatment and experiment readout was performed. The immobility time was measured in each session.
Behavioral Readout: After the treatment intervention, animals were either tested in an additional swim session (test day) to measure immobility time or tested in the InteliCage using the Nose-pokes sucrose preference test. For the assessment of the immobility time, mice were videotaped and two independent raters who were blinded to the experimental group analyzed the videos. Immobility time was defined as the cumulative time that the animals spend stationary with only enough movements of the tails or the forepaws to keep the head above the water surface. No distance is actively travelled except for passive floating, no directed movement of the front paws observed and the body of the animal mostly oriented parallel to the walls of the cylinder.

[2] = system: CA3-CA1 synapse, CA1 pyramidal neurons in hippocampal brain slices; test: LTP/LTD protocols and wash-in in brain slices of unstressed mice, substance in bathing solution; assay type: cell-based; details: for LTP inducibility, associative LTP protocol (aLTP): bath with picrotoxin, R,S-ketamine 10 μM, S-ketamine 5 μM
[3] = system: NMDAR currents in CA1 pyramidal cells; test: NMDAR currents in voltage-clamp recordings, CA1 pyramidal cells; assay type: cell-based, mice; details: +40 mV, CNQX, bath application 10 μM
Procedure: After 20 min resting time at 35° C., slices were kept at room temperature in aCSF and transferred into the recording chamber (volume approx. 2-3 ml) and continuously superfused with aCSF (rate approx. 5-10 ml/min-). Differential interference contrast video microscopy was used to identify location of CA1 pyramidal neurons (Zeiss Axioskop 2 FS plus, Zeiss Microscopy, Germany). Beside optical identification neurons were classified according to their characteristic firing frequency adaptation to long depolarising current pulses. Borosilicate glass tubes (2.0 mm outer diameter, 0.5 mm wall thickness; Hilgenberg, Germany) were used to pull patch pipettes. Pipettes with a resistance of 5-10 MΩ were used and series resistance of 10-50 MΩ was compensated by bridge balance. Patch pipettes were filled with an internal solution containing (in mM) for EPSP-measurements: 132K-gluconate, 20KCL, 2MgCl2, 10Hepes, 0.1EGTA, 4 Na2ATP, 0.3NaGTP. PH was adjusted to 7.2 with KOH. For current measurements: 135Csgluconate, 2CsCl, 5 QX314, 10 Hepes, 10EGTA, 2MgCl2, 2Na2ATP, 2TEACI, pH was adjusted to 7.2 with HCl. Osmolarity (280-300 mosmol/1) was controlled at the beginning of each experimental day with Osmomat (Gonotec GmbH, Germany).

[4] = system: SOM-dependent feedback loop, CA1 PCs; test: Feedback loop-activating protocol (FLAP) in CA1 PCs; assay type: cell-based, mice; details: for synaptic AP probability (conversion of EPSPs to APs) in FLAP: 10 μM washed in, 10-30 min vs baseline; for EPSP amplitude in the FLAP: wash-in of 10 μM after 10 min baseline
Procedure: A 300 ms depolarizing current between +100 and +[…] was injected via the patch pipette into a PC to elicit a train of 5-10 APs. After an interval of 600 ms, one EPSP (5-10 mV amplitude) was elicited by Schaffer collateral stimulation. This pattern was continuously repeated at a frequency of 0.2 Hz. Substances were added by bath application after a stable 10 min baseline recording for an additional 20 min. For data analysis the maximum EPSP amplitudes from minutes 0-10 were averaged and compared to averaged maximum EPSP amplitudes from minutes 20-30.
The slope of the EPSP rise at 20% to 40% of its maximal amplitude, at which point an approximately linear increase in its voltage could be assumed, was fitted with Fitmaster software (HEKA, Germany). We analyzed 20 EPSPs before and 20 EPSPs 25-30 minutes after NAB-14 wash-in in the FLAP protocol for each experiment. The coefficient of variation (CV) is the standard deviation of the EPSP slopes divided by the mean. The inverse square of the CV of the postwash-in slopes was divided by the inverse square of the prewash-in slopes and plotted against the corresponding normalized slopes. Pre- and postwash-in measurements from a single experiment are connected by a line. In a standard quantal model for synaptic transmission, synaptic responses are affected either by presynaptic changes in the number of release sites and/or the probability of release or by modifications of the postsynaptic response to a single […]. A change in the ratio of CV-2 reflects a presynaptic action, whereas horizontal lines in the CV-2 plot indicate a change in postsynaptic responsiveness.

[5] = Side effects in in vivo experiments; parameters: species or system mice
[6] = system: SOM-dependent feedback loop, CA1 PCs; test: Feedback loop-activating protocol (FLAP) in CA1 PCs; assay type: cell-based, mice
[7] = molecular target: recombinant GluN2D-containing receptors (Rattus norvegicus, UniProt Q62645); details: recombinant GluN2D-containing receptors expressed in mammalian cells; cited from earlier work
[8] = unstressed mice, NAB-14 in bathing solution

recombinant GluN2D-containing receptors, sequence (Q62645 28-1323, other chains not shown): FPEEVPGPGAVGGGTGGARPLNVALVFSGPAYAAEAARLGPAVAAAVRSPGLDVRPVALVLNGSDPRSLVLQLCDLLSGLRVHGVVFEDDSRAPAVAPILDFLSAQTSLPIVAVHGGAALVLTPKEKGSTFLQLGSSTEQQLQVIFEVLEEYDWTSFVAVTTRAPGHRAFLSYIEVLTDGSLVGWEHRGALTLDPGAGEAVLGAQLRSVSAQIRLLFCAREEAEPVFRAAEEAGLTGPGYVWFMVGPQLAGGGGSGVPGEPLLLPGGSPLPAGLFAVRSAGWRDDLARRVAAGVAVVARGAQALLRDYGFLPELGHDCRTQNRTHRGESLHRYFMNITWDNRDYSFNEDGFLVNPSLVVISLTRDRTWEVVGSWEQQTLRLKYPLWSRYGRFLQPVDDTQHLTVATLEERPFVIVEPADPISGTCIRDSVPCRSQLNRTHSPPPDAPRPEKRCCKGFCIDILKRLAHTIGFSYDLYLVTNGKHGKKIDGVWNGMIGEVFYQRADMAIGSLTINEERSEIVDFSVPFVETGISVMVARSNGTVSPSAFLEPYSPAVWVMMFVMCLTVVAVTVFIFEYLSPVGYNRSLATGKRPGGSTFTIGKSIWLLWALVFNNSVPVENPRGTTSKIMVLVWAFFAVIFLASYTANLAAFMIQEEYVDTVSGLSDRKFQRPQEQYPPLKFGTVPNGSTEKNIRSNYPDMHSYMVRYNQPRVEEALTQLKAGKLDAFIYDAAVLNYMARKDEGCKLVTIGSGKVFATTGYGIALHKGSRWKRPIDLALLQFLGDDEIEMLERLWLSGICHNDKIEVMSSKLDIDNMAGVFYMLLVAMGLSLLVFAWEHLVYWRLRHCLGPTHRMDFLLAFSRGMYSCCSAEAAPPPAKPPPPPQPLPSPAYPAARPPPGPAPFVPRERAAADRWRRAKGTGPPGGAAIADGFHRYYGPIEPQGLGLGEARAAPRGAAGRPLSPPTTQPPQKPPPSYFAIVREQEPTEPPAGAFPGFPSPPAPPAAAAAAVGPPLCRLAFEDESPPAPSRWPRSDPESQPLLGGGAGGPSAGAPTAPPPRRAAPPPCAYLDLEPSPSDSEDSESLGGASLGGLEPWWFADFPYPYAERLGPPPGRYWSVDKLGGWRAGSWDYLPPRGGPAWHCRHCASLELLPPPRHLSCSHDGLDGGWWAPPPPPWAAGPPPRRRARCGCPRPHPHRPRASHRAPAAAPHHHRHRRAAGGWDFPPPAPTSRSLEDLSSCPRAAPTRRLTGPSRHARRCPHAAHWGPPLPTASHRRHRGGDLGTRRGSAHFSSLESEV

SMILES: CCN(CC)C(=O)Oc1ccc(C(=O)Nc2cccc3cc[nH]c23)cc1 [NAB-14]
- immobility time ([1]; injection of NAB-14 (5/10 μM as printed)): significantly reduced
- EPSP amplitude after aLTD stimulation [2, 8]: strongly increased the EPSP amplitude; also recorded: significant increase
- basal EPSP-amplitude / synaptic transmission [2, 8]: did not change synaptic transmission; also recorded: did not affect basal EPSP-amplitude
- IiLTP induced increase of EPSP amplitude ([2]; unstressed mice, NAB-14 in bathing solution, vs control IiLTP): increased IiLTP; also recorded: enhance IiLTP induced increase of EPSP amplitude significantly
- amplitude of NMDAR currents in CA1 pyramidal cells [3]: no relevant NMDAR reduction
- synaptic AP probability (conversion of EPSPs to APs) in FLAP [4]: significant increase in synaptic AP probability
- PC excitability: number of APs during the burst and input resistance (Rm) ([4]; NAB-14 10 μM in FLAP): did not significantly change; also recorded: no significant alteration in AP number; also recorded: no significant change in postsynaptic input resistance
- coefficient of variation (CV) analysis of EPSP slopes before and after wash-in ([4]; NAB-14 wash-in in FLAP): consistent with a postsynaptic mechanism
- EPSP amplitude in the FLAP [4]: significantly increased; also recorded: increased significantly
- side effects [5]: did not show side effects
- EPSP amplitude in the absence of AP bursts [6]: neither NAB14 nor diazepam wash-in significantly altered the EPSP amplitude; also recorded: no significant pre/post changes
- IC50 [7]: 580 nM

SMILES: CNC1(c2ccccc2Cl)CCCCC1=O (stereo not shown) [R,S-ketamine, R,S-Ketamine hydrochloride]
- immobility time ([1]; 10 mg/kg R,S-ketamine intraperitoneal, vs control): significantly reduced
- LTD induction [2]: could be blocked
- paired-pulse ratio (PPR, EPSP2/EPSP1) before and after weak-aLTP (li-LTP) induction [2]: unchanged
- EPSP amplitude after associative LTD protocol (aLTD, NMDAR-independent) ([2]; hydrochloride): unaffected; also recorded: neither R,S-ketamine (10 μM) nor S-ketamine (5 μM) had an effect
- LTD inducibility, non-associative 1 Hz LTD protocol (NMDAR-dependent) ([2]; hydrochloride): fully blocked; also recorded: abolished
- LTP inducibility, non-associative 100 Hz LTP protocol ([2]; hydrochloride): significant blockade of inducibility of LTP
- aLTP induction ([2]; hydrochloride): neither K nor SK blocked aLTP induction; also recorded: not affected
- low intensity LTP (IiLTP) induction ([2]; hydrochloride): blocked LTP induction; also recorded: blockade of LTP induction
- low intensity LTP (IiLTP), EPSP amplitude ([2]; hydrochloride): significant increase in EPSP amplitude; also recorded: even enhanced LTP induction
- LTP inducibility, associative LTP protocol (aLTP) ([2]; unstressed mice, hydrochloride): significant blockade of inducibility of LTP
- LTP inducibility, associative LTP protocol (aLTP) ([2]; unstressed mice, listed as K, hydrochloride): complete inhibition of LTP
- amplitude of NMDAR currents in CA1 pyramidal cells ([3]; hydrochloride): reduced the amplitude
- amplitude of NMDAR currents in CA1 pyramidal cells ([3]; listed as R,S-Ketamine, hydrochloride): significantly blocking NMDAR currents in CA1 cells
- synaptic AP probability (conversion of EPSPs to APs) in FLAP ([4]; hydrochloride): higher percentage of APs; also recorded: significant increase in synaptic AP probability
- EPSP amplitude in the FLAP ([4]; hydrochloride): dramatically increased
- EPSP amplitude in the FLAP ([4]; listed as ketamine, hydrochloride): increased significantly
